Read-outs that look alike come from different tables or passages of the source.
Tests used:
[1] = Pharmacokinetic evaluation in mice (IV and PO); format: in vivo; settings: mouse, plasma, CD-1 mice, dose IV:0.5, PO:2 mg/kg; for half-life: IV, read-out: Half-life T1/2 (IV) (converted); for AUC(0-t): PO, read-out: Area under the concentration-time curve AUC0-last PO; for bioavailability: read-out: Bioavailability F; for clearance: read-out: Clearance CL; for Cmax: read-out: Peak plasma concentration Cmax; for Vd: read-out: Volume of distribution Vdss
Procedure: Test Method 2: Pharmacokinetic Evaluation in Mice
Assay method: Test compounds were mixed with 5% DMSO / 60% polyethylene glycol (PEG400) / 35% water, vortexed and sonicated to obtain a clear 0.2 mg/mL solution, which was then filtered through a microporous membrane before use. Male CD-1 mice weighing 25-35 g were selected. The candidate compound solution was administered intravenously at a dose of 1 mg/kg. The candidate compound solution was orally administered at a dose of 5 mg/kg after fasting. Blood samples (25 µL each) were collected at 0.083, 0.25, 0.5, 1, 2, 4, 8, 12 and 24 hours after administration, and placed into commercial anticoagulant tubes pre-containing EDTA-K2. The tubes were centrifuged for 10 minutes to separate plasma, which was then stored at -60°C. The content of the target compound in plasma samples was determined by LC/MS/MS method, and pharmacokinetic parameters were calculated using Phoenix WinNonlin software (Pharsight, USA).
Tlast: time of the last detection point. AUC0-last: (Area Under the Concentration-Time Curve) refers to the area enclosed by the plasma drug concentration curve and the time axis. F (Bioavailability) is a measure of the rate and extent to which a drug is absorbed into the systemic circulation, serving as a critical indicator for evaluating the degree of drug absorption. […]

hKCNQ2/3 = biological target: T1, hKCNQ2/3 (Homo sapiens, UniProt O43525+O43526); assay: cell-based
T1 construct: expressed in transfected cells; host or cells: CHO
T1 sequence (O43526 whole entry): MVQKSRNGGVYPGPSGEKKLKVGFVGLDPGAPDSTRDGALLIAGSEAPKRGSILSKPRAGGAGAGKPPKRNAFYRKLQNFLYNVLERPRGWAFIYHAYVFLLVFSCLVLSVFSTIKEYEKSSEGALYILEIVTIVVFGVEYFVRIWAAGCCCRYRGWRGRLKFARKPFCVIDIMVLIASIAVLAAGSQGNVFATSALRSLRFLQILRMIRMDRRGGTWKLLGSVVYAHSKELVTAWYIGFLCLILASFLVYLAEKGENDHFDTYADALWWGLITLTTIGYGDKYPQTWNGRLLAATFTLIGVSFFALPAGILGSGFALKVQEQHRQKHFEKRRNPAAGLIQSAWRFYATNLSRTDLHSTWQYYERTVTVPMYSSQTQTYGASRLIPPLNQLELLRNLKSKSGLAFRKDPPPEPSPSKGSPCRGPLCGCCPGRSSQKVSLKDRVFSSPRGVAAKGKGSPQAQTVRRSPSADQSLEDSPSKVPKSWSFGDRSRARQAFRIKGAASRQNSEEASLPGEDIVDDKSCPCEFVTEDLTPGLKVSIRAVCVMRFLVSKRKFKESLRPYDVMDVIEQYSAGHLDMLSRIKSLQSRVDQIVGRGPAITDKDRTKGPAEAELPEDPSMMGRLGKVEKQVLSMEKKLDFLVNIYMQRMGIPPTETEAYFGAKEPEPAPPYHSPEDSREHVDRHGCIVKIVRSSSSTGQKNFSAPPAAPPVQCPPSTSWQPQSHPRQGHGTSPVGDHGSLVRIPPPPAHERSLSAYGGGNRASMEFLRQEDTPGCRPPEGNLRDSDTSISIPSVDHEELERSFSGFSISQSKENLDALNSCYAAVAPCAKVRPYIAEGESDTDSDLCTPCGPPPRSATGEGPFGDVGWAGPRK
T1 sequence (O43525 whole entry): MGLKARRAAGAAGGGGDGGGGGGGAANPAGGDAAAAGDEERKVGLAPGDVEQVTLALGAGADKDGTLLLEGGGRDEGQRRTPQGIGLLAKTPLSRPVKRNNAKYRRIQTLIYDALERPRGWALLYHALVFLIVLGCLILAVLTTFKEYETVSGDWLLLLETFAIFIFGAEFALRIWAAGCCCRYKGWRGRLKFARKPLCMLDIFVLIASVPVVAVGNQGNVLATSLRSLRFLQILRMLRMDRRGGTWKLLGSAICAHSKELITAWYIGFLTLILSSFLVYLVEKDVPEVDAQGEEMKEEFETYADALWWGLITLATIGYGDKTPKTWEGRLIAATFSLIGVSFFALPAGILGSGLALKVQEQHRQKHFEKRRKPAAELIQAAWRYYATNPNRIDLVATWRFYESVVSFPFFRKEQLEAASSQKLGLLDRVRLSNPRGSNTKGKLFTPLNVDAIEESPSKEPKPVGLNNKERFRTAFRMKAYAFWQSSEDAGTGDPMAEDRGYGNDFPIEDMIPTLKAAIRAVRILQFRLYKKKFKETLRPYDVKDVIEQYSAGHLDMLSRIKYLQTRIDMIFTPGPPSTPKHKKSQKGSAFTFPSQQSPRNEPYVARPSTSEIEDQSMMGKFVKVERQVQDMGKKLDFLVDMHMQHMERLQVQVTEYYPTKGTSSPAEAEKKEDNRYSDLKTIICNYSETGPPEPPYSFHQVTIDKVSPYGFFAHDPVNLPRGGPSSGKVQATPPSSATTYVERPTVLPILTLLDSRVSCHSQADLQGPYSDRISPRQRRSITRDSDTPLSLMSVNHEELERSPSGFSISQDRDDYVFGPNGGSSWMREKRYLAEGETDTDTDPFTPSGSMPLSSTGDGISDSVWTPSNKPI
Text: Test Method 1: hKCNQ2/3 Thallium Flux Assay
Test Objective: To test the in vitro concentration-response relationship of compounds using FLIPR thallium flux assay in CHO cell lines stably expressing hKCNQ2/3.
According to the split ratio, the cells were transferred to another T-75 flask containing complete cell growth medium. Note: To maintain logarithmic growth, the cells should be kept in a subconfluent monolayer state. Based on the cell doubling time, the cells were passaged every 2-3 days.
• (1) Day 1 - Cell preparation: Cells were digested as described above, and cell density and viability were determined using a Cell Countess. The volume of the single-cell suspension was adjusted with complete cell growth medium. Then, hKCNQ2/3_CHO cells were seeded onto PDL-precoated 384-well plates at a density of approximately 20,000 cells/well (30 µL/well). The plates were then incubated overnight in a 37°C, 5% CO2 humidified air incubator. • (2) Day 2 - Compound preparation: Test compounds were diluted with dimethyl sulfoxide (DMSO) to stock concentrations and stored in a -20°C freezer. A compound addition program was set up on the ECHO liquid handler, and compounds were added to the plates using the ECHO liquid handler. Retigabine (RTG) was used as a positive control at a highest concentration of 100 µM with 3-fold serial dilutions for a total of 9 doses. Buffer containing 5 mM K^+ and 1 mM Tl^+ was added to the plates. Notes: 1) K2SO4 and Tl2SO4 were prepared in 1× chloride-free buffer. Depending on the voltage-gated potassium channel involved, the concentrations of Tl^+ and K^+ should be adjusted. Tl^+ concentration is approximately 0.5-5 mM, and K^+ concentration is approximately 5-30 mM. 2) Each 1 mM solution of K2SO4 and Tl2SO4 contains 2 mM K^+ and Tl^+; the final concentration should be calculated based on the ion concentration. 3) TlCl readily precipitates and a chloride-free buffer is required. • (3) Day 2 -Assay testing: Once the cells reached the desired confluence, the cell assay plates were removed from the incubator. Assay buffer and diluted Tl^+ dye (Molecular Devices # R8222) were prepared. The medium was discarded using a Bravo liquid handler, and 25 µL of Tl^+ dye was added to each well. After 1 hour of incubation, the cell assay plates, composite plates and FLIPR tips were placed in the FLIPR^TETRA (Molecular Devices, USA) for FLIPR detection. After setting up the tips, baseline readings were taken for 60 seconds, then 12.5 µL was added from the composite plate (3×) to the cell assay plate, and data were recorded for at least 5 minutes. • (4) Data processing: Maximum signals were generated by the FLIPR software. […] Data quality control: S/B > 2.00, Z factor > 0.50.
• (1) Day 1 - Cell preparation: Cells were digested as described above, and cell density and viability were determined using a Cell Countess. The volume of the single-cell suspension was adjusted with complete cell growth medium. Then, hKCNQ2/3_CHO cells were seeded onto PDL-precoated 384-well plates at a density of approximately 20,000 cells/well (30 µL/well). The plates were then incubated overnight in a 37°C, 5% CO2 humidified air incubator. • (2) Day 2 - Compound preparation: Test compounds were diluted with dimethyl sulfoxide (DMSO) to stock concentrations and stored in a -20°C freezer. A compound addition program was set up on the ECHO liquid handler, and compounds were added to the plates using the ECHO liquid handler. Retigabine (RTG) was used as a positive control at a highest concentration of 100 µM with 3-fold serial dilutions for a total of 9 doses. Buffer containing 5 mM K^+ and 1 mM Tl^+ was added to the plates. Notes: 1) K2SO4 and Tl2SO4 were prepared in 1× chloride-free buffer. Depending on the voltage-gated potassium channel involved, the concentrations of Tl^+ and K^+ should be adjusted. Tl^+ concentration is approximately 0.5 mM -5 mM, and K^+ concentration is approximately 5 mM -30 mM.

CYP1A2 = biological target: T2, CYP1A2 (Homo sapiens, UniProt P05177); assay: Drug-drug interaction evaluation: CYP inhibition in human liver microsomes (cocktail method)
T2 sequence (P05177 1-516): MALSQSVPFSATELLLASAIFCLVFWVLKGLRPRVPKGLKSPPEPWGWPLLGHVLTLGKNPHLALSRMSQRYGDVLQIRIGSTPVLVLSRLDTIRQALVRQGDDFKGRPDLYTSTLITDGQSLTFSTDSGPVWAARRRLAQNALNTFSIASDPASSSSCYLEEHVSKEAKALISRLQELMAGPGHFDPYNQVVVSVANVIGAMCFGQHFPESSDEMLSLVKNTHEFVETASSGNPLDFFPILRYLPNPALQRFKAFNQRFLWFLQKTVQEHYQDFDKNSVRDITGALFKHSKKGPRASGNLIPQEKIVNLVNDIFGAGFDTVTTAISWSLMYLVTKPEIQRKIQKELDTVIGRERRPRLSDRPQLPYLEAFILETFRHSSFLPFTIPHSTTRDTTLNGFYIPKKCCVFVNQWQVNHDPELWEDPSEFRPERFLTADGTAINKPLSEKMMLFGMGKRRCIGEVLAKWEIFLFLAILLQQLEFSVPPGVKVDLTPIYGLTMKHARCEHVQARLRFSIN
Procedure: (§1) The cocktail method using specific probe substrates for CYP1A2, CYP2C9, CYP2C19, CYP2D6 and CYP3A was used to evaluate the inhibitory effect of the compounds on the activity of human liver microsomal cytochrome P450 isoenzymes (CYP1A2, CYP2C9, CYP2C19, CYP2D6 and CYP3A).
(§2) Human liver microsomes, probe substrates, positive control inhibitors, and reduced nicotinamide adenine dinucleotide phosphate (NADPH).
(§3) To the corresponding wells of a reaction plate, 20 µL of substrate solution was added; to blank wells, 20 µL of potassium phosphate buffer was added.
(§4) To the corresponding wells, 2 µL of test compound and positive control working solution were added; to inhibitor-free and blank wells, 2 µL of solvent was added.
(§5) Human liver microsome working solution was prepared, and 158 µL of human liver microsome working solution was added to each well of the reaction plate.
(§6) The plate was pre-incubated at 37.0°C for 10 minutes.
(§7) To start the reaction, 20 µL of NADPH cofactor working solution was added to the reaction plate.
(§8) After incubation in a 37.0°C water bath with mixing for 10 minutes, 400 µL of stop solution was added to terminate the reaction.
(§9) The sample plate was centrifuged at 4000 rpm for 20 minutes.
(§10) 200 µL of supernatant was taken and mixed with 100 µL of pure water as diluent, and the plate was shaken to mix well.
(§11) Analysis was performed by liquid chromatography-tandem mass spectrometry (LC-MS/MS).
(§12) Using the percentage of remaining activity as the ordinate and the test compound concentration as the abscissa, a non-linear regression analysis was performed with a three-parameter or four-parameter model using XL fit software to calculate the IC50 value.
(§13) y = (max)/(1 + (((x)/(IC50)))^−hillslope) [formula]
(§14) y = min + (max−min)/(1 + (((x)/(IC50)))^−hillslope) [formula]
(§15) max = maximum enzyme activity; min = minimum enzyme activity; x = concentration of test compound or positive control inhibitor; y = enzyme activity at the corresponding concentration; hillslope = slope; IC50 = half-maximal inhibitory concentration. The four-parameter equation was used when the minimum enzyme activity was within ±10%; otherwise the three-parameter equation was used.

CYP2C19 = CYP2C19 (Homo sapiens, UniProt P33261); assay: as above
Chain of CYP2C19 (P33261 whole entry): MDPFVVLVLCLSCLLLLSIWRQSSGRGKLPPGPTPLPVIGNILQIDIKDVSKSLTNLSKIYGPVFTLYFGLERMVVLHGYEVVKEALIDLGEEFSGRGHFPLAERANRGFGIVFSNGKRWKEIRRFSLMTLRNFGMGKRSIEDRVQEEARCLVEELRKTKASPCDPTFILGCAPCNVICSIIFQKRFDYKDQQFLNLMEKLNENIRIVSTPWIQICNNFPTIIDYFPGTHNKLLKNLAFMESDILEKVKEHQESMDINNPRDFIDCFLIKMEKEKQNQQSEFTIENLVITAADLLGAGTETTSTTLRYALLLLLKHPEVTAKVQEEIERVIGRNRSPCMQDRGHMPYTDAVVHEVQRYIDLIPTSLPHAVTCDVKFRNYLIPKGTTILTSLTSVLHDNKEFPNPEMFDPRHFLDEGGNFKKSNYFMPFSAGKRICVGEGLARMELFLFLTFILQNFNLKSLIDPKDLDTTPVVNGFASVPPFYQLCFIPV
Procedure: as §1, §2, §3, §4, §5, §6, §7, §8, §9, §10, §11, §12, §13, §14, §15

CYP2C9 = CYP2C9 (Homo sapiens, UniProt P11712); assay: as above
Chain of CYP2C9 (P11712 whole entry): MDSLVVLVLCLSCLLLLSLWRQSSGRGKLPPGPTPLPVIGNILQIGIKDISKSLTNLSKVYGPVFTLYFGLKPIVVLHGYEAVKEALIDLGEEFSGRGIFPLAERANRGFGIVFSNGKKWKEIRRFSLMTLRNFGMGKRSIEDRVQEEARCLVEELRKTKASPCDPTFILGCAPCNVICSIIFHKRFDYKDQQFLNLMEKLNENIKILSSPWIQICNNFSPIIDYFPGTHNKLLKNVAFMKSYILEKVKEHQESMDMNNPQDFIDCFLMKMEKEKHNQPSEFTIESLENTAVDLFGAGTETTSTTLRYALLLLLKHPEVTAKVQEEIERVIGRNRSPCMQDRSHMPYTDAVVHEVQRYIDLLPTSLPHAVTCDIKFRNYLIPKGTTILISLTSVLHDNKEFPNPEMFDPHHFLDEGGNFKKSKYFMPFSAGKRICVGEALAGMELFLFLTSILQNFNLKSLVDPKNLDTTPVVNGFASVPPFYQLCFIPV
Procedure: as §1, §2, §3, §4, §5, §6, §7, §8, §9, §10, §11, §12, §13, §14, §15

CYP2D6 = CYP2D6 (Homo sapiens, UniProt P10635); assay: as above
Chain of CYP2D6 (P10635 whole entry): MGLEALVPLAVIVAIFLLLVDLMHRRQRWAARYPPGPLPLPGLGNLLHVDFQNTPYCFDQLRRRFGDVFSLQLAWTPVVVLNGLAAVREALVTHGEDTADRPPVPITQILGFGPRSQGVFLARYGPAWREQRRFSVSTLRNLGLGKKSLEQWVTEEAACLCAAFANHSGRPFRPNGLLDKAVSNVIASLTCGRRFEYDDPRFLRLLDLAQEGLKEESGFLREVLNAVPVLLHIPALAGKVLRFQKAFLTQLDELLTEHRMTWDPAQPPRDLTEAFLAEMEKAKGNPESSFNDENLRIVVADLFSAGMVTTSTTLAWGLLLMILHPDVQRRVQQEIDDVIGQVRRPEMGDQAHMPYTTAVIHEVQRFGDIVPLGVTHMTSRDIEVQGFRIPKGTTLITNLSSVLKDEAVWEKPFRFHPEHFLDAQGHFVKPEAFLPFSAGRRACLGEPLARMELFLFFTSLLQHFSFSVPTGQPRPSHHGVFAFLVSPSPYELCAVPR
Procedure: as §1, §2, §3, §4, §5, §6, §7, §8, §9, §10, §11, §12, §13, §14, §15

CYP3A4 = CYP3A4 (Homo sapiens, UniProt P08684); assay: as above
Chain of CYP3A4 (P08684 2-503): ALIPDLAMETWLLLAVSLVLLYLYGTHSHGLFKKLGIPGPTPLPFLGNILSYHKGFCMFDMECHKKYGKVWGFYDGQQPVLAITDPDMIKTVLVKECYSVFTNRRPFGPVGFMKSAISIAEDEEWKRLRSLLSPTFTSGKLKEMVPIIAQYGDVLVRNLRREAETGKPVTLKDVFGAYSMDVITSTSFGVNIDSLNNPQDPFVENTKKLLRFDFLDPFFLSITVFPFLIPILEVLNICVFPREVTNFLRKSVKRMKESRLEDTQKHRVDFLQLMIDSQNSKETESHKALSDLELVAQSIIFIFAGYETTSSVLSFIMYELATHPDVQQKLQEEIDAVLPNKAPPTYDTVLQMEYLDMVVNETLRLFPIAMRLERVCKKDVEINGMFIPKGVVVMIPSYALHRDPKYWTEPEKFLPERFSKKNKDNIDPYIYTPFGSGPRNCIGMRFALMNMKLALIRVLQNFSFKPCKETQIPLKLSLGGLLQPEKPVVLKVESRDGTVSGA
Procedure: as §1, §2, §3, §4, §5, §6, §7, §8, §9, §10, §11, §12, §13, §14, §15

[2] = agonistic effect, CHO cells stably expressing hKCNQ2/3, FLIPR thallium flux, read-out: EC50

Work on CC(C)(C)CC(=O)Nc1nc2c(F)cc(Nc3ccc(F)cc3)cc2n1C1CCC1 [Compound 4] yielded a half-life [1] of 72 min, an AUC(0-t) [1] of 2.98 µM·h and a bioavailability [1] of 64.2%. The clearance [1] was 17.9 mL/min/kg, the Cmax [1] was 548 nM and the Vd [1] was 2.14 L/kg.
Cc1c(NC(=O)CC(C)(C)C)n(C)c2cc(Nc3ccc(F)cn3)ccc12 [Compound 11] gave an EC50 (hKCNQ2/3) of 0.2 µM, a half-life [1] of 42 min and an AUC(0-t) [1] of 1.11 µM·h. It also gave a bioavailability [1] of 62.2%, a clearance [1] of 50.3 mL/min/kg and a Cmax [1] of 524 nM. It also gave a Vd [1] of 2 L/kg.
With Cc1c(NC(=O)CC2(C)CC2)n(C)c2cc(Nc3ccc(F)cc3)ccc12 [Compound 12] the EC50 (hKCNQ2/3) was 0.8 µM, the IC50 (CYP1A2) was 20 µM and the IC50 (CYP2C19) was 13 µM. For the same molecule, the IC50 (CYP2C9) was 11 µM, the IC50 (CYP2D6) was 15 µM and the IC50 (CYP3A4) was 37 µM.
For Cc1c(NC(=O)C2CC2)n(C)c2cc(Nc3ccc(F)cc3)ccc12 [Compound 13], the EC50 (hKCNQ2/3; [2]) was 0.5 µM.
Molecule CCC(=O)Nc1c(C)c2ccc(Nc3ccc(F)cc3)cc2n1C [Compound 16] has an EC50 (hKCNQ2/3; [2]) of 0.7 µM.
With Cc1c(NC(=O)C2CCCC2)n(C)c2cc(Nc3ccc(F)cn3)ccc12 [Compound 21] the EC50 (hKCNQ2/3; [2]) was 0.22 µM.
